Data: ChEMBL document CHEMBL1201862, “PubChem BioAssay data set” (2004)
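How tested: cells in 96-well plates exposed to compound for 48 hours at five concentrations. GI50 = concentration required for 50% inhibition of growth.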 Calls of active or inactive are those of the source. Rule as the data show it: active = GI50 up to about 1.1 µM and inactive = higher.

Assays:
Experiment in all cases: inhibition of tumour cell growth, NCI panel, 48 h
RPMI-8226 = system: RPMI-8226
NCI-H226 = system: NCI-H226
PC-3 = system: PC-3
HCC 2998 = system: HCC 2998
MCF7 = system: MCF7
SK-OV-3 = system: SK-OV-3
Hs-578T = system: Hs-578T
UACC-62 = system: UACC-62
SK-MEL-28 = system: SK-MEL-28
CCRF-CEM = system: CCRF-CEM
Malme-3M = system: Malme-3M
UO-31 = system: UO-31
HT-29 = system: HT-29
OVCAR-8 = system: OVCAR-8
ACHN = system: ACHN
HOP-92 = system: HOP-92
HOP-62 = system: HOP-62
NCI/ADR-RES = system: NCI/ADR-RES
SR = system: SR

SMILES	GI50 (RPMI-8226)	GI50 (NCI-H226)	GI50 (PC-3)	GI50 (HCC 2998)	GI50 (MCF7)	GI50 (SK-OV-3)	GI50 (Hs-578T)	GI50 (UACC-62)	GI50 (SK-MEL-28)	GI50 (CCRF-CEM)	GI50 (Malme-3M)	GI50 (UO-31)	GI50 (HT-29)	GI50 (OVCAR-8)	GI50 (ACHN)	GI50 (HOP-92)	GI50 (HOP-62)	GI50 (NCI/ADR-RES)	GI50 (SR)
Cc1cccc2sc(NC(=O)NS(=O)(=O)n3cnc4ccccc43)nc12	21.5 µM (inactive)	59 µM (inactive)	28.6 µM (inactive)	15.6 µM (inactive)	16.1 µM (inactive)	38.3 µM (inactive)	13.8 µM (inactive)	18.3 µM (inactive)	35.9 µM (inactive)	76.6 µM (inactive)	25.2 µM (inactive)	22.2 µM (inactive)	33.9 µM (inactive)	22.5 µM (inactive)	32.8 µM (inactive)	15.3 µM (inactive)	34.7 µM (inactive)	27.4 µM (inactive)	
Clc1cc2c(cc1Cl)CC(NCCN1CCCC1)CC2 (stereo not drawn)	12.6 µM (inactive)	15.2 µM (inactive)	15.1 µM (inactive)	2.7 µM (inactive)	15.6 µM (inactive)	17.7 µM (inactive)	21.2 µM (inactive)	2.87 µM (inactive)	10.2 µM (inactive)	26.4 µM (inactive)	10.8 µM (inactive)	11.1 µM (inactive)	4.35 µM (inactive)	16.7 µM (inactive)	17.9 µM (inactive)		16 µM (inactive)	13.7 µM (inactive)	10.6 µM (inactive)
CCCCCCCCCCCCCCCC(=O)Nc1ccn(C2CC(OP(=O)(O)OCC3OC(n4cc(F)c(=O)[nH]c4=O)CC3OC(C)=O)C(CO)O2)c(=O)n1 (stereo not drawn)	3.81 µM (inactive)	31.2 µM (inactive)	7.87 µM (inactive)		> 100 µM (inactive)	> 21.2 µM (inactive)	12.1 µM (inactive)	8.32 µM (inactive)	30.5 µM (inactive)	3.18 µM (inactive)		0.565 µM (active)	7.62 µM (inactive)	3.78 µM (inactive)	0.128 µM (active)		0.351 µM (active)	11.4 µM (inactive)	1 µM (active)
CC1=C(/C=C/C(C)=C/C=C/C(C)=C/C(=O)Nc2ccc(O)cc2)C(C)(C)CCC1 [FENRETINIDE]	1.65 µM (inactive)	5.13 µM (inactive)	3.13 µM (inactive)	4.16 µM (inactive)	2.65 µM (inactive)	6.68 µM (inactive)	3.33 µM (inactive)	2.12 µM (inactive)	4.23 µM (inactive)	0.057 µM (active)	4.94 µM (inactive)	3.26 µM (inactive)	2.63 µM (inactive)	3.61 µM (inactive)	4.19 µM (inactive)	2.97 µM (inactive)	5.46 µM (inactive)	2.71 µM (inactive)	
COC(=O)C1Cc2c([nH]c3ccccc23)-c2[nH]c3ccccc3c2CC(NC(C)=O)C(=O)N2CCCC2C(=O)N1 (stereo not drawn)	56.8 µM (inactive)	0.176 µM (active)	> 100 µM (inactive)	> 100 µM (inactive)	> 100 µM (inactive)	> 100 µM (inactive)	> 100 µM (inactive)	> 100 µM (inactive)	> 100 µM (inactive)	93.5 µM (inactive)		> 100 µM (inactive)	> 100 µM (inactive)	> 100 µM (inactive)	> 100 µM (inactive)		> 100 µM (inactive)	> 100 µM (inactive)	> 100 µM (inactive)
O=C(c1ccccc1)c1ccc(COc2ccc(C(c3c(O)c4ccccc4oc3=O)c3c(O)c4ccccc4oc3=O)cc2)cc1	12.5 µM (inactive)	0.173 µM (active)	18.3 µM (inactive)	18.5 µM (inactive)	27.8 µM (inactive)	19.2 µM (inactive)	29.4 µM (inactive)	14 µM (inactive)	17.9 µM (inactive)	3.84 µM (inactive)		27.7 µM (inactive)	18.3 µM (inactive)	17.2 µM (inactive)	19.3 µM (inactive)		20.5 µM (inactive)	19.5 µM (inactive)	35.9 µM (inactive)
CNS(=O)(=O)c1ccccc1C(=N)c1ccccc1	> 100 µM (inactive)	> 100 µM (inactive)	> 100 µM (inactive)		> 100 µM (inactive)	> 100 µM (inactive)	> 100 µM (inactive)	> 100 µM (inactive)	> 100 µM (inactive)	> 100 µM (inactive)	> 100 µM (inactive)	> 100 µM (inactive)	> 100 µM (inactive)	> 100 µM (inactive)	> 100 µM (inactive)	> 100 µM (inactive)	> 100 µM (inactive)	> 100 µM (inactive)	> 100 µM (inactive)
CN1N=C(c2ccccc2)C(C(c2ccccc2[N+](=O)[O-])C2C(=O)N(C)N=C2c2ccccc2)C1=O (stereo not drawn)	34.3 µM (inactive)	> 51.1 µM (inactive)	67.5 µM (inactive)	53 µM (inactive)	47.1 µM (inactive)	> 100 µM (inactive)	> 73.1 µM (inactive)	61.2 µM (inactive)	> 100 µM (inactive)	26.8 µM (inactive)	> 100 µM (inactive)	> 100 µM (inactive)	> 68.7 µM (inactive)	39.3 µM (inactive)	> 100 µM (inactive)	> 80.9 µM (inactive)	93.1 µM (inactive)	> 100 µM (inactive)	
Cc1ccc(OP(=O)(Oc2ccc(C)cc2)N2C=Cc3ccccc3C2C#N)cc1 (stereo not drawn)	> 100 µM (inactive)	> 100 µM (inactive)	> 100 µM (inactive)		> 100 µM (inactive)	> 100 µM (inactive)	70.5 µM (inactive)	> 100 µM (inactive)	> 100 µM (inactive)	> 100 µM (inactive)	82.8 µM (inactive)	> 100 µM (inactive)	> 100 µM (inactive)	> 100 µM (inactive)	> 100 µM (inactive)	> 100 µM (inactive)	> 100 µM (inactive)	> 100 µM (inactive)	> 100 µM (inactive)
COC1CCN(N(C)C)O1 (stereo not drawn)	> 100 µM (inactive)	> 100 µM (inactive)	> 100 µM (inactive)	> 100 µM (inactive)	> 100 µM (inactive)		> 100 µM (inactive)	> 100 µM (inactive)	> 100 µM (inactive)	> 100 µM (inactive)	> 100 µM (inactive)	> 100 µM (inactive)	> 100 µM (inactive)	> 100 µM (inactive)	> 100 µM (inactive)		> 100 µM (inactive)	> 100 µM (inactive)	> 100 µM (inactive)
CN(N=O)c1ccc(/C=C/c2ccnc3ccccc23)cc1		47.8 µM (inactive)	76.4 µM (inactive)		53.8 µM (inactive)	> 100 µM (inactive)	> 100 µM (inactive)	50.7 µM (inactive)	> 100 µM (inactive)	47.3 µM (inactive)	86.3 µM (inactive)	30.4 µM (inactive)	43.3 µM (inactive)	58.1 µM (inactive)	47 µM (inactive)	> 100 µM (inactive)	78.3 µM (inactive)	83.4 µM (inactive)	31.8 µM (inactive)
C=CC1(CC/C(=C\[N+](=O)[O-])c2ccc(OC)c(OC)c2)OCC(C)(C)CO1		16.4 µM (inactive)	25.6 µM (inactive)	24.5 µM (inactive)	13.9 µM (inactive)	22.4 µM (inactive)	24 µM (inactive)	13.2 µM (inactive)	19.8 µM (inactive)	7.57 µM (inactive)	23.2 µM (inactive)	15.1 µM (inactive)	19.9 µM (inactive)	15.2 µM (inactive)	17.8 µM (inactive)	18.2 µM (inactive)	18.3 µM (inactive)	13.9 µM (inactive)	3.61 µM (inactive)
CCOC(=O)c1ccc(Nc2c3c(nc4ccccc24)CCCC3)cc1	> 100 µM (inactive)	> 100 µM (inactive)	> 47.5 µM (inactive)	> 56.4 µM (inactive)	12 µM (inactive)	> 66.2 µM (inactive)	27.5 µM (inactive)	30.3 µM (inactive)	> 100 µM (inactive)	14.2 µM (inactive)		> 34.3 µM (inactive)	2.89 µM (inactive)	44.7 µM (inactive)	> 91.4 µM (inactive)	18.1 µM (inactive)	10.6 µM (inactive)	> 30.3 µM (inactive)	25.4 µM (inactive)
CN(C)c1ccc(/C=C2\N=C(c3ccccc3)N(c3ccc4c(c3)Sc3cc(N5C(=O)/C(=C/c6ccc(N(C)C)cc6)N=C5c5ccccc5)ccc3N4)C2=O)cc1	20.4 µM (inactive)		16.9 µM (inactive)	19.6 µM (inactive)	17 µM (inactive)	13.6 µM (inactive)	27.1 µM (inactive)	16.6 µM (inactive)	50.8 µM (inactive)	3.73 µM (inactive)		18.2 µM (inactive)	54.7 µM (inactive)	18.1 µM (inactive)	16.7 µM (inactive)	18.3 µM (inactive)	13.7 µM (inactive)	28.4 µM (inactive)	90.6 µM (inactive)
COc1ccccc1/C=C/c1cnccn1	> 10 µM (inactive)	> 10 µM (inactive)	> 10 µM (inactive)	> 10 µM (inactive)	> 10 µM (inactive)	> 10 µM (inactive)	> 10 µM (inactive)	> 10 µM (inactive)	> 10 µM (inactive)	> 10 µM (inactive)	> 10 µM (inactive)	> 10 µM (inactive)	> 10 µM (inactive)	> 10 µM (inactive)	> 10 µM (inactive)	> 10 µM (inactive)	> 10 µM (inactive)	> 10 µM (inactive)	
